Experimental findings from patent US10316017B2, “COT modulators and methods of use thereof” (Gilead Sciences, Inc., priority 2015, dated 2019) are described below.

Some results are limits rather than exact numbers.

In the assay the target is T1, human Cot catalytic domain (30-397 amino acids) (Homo sapiens, UniProt P41279).
T1 construct: Purified recombinant human Cot catalytic domain (30-397 amino acids) was purchased from Cama Biosciences; purchased Cama Biosciences (so in the source)
T1 sequence (P41279 30-397): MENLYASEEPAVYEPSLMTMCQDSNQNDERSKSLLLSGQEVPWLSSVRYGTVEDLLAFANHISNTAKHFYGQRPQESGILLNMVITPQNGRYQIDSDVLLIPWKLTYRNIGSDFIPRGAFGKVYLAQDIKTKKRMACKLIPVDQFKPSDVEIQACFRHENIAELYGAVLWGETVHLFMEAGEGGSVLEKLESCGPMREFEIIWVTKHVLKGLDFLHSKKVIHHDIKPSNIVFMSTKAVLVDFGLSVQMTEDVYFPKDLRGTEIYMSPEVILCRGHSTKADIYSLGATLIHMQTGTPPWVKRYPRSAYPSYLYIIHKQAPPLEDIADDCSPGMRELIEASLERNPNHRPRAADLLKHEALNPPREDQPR
As to the kind of experiment: High Throughput Cot Biochemical Assay (KinEASE TR-FRET). The following applies: Cot KinEASE TR-FRET, 400 μM ATP; read-out: IC50 HTRF. As for the experimental part: Example 61: High Throughput Cot Biochemical Assay
In this assay, Cot-catalyzes the phosphorylation of a XL665-labeled peptide substrate. Europium conjugated phospho-tyrosine specific antibody binds the resulting phosphorylated peptide. […] Purified recombinant human Cot catalytic domain (30-397 amino acids) was purchased from Cama Biosciences. […] The standard 5 μL reaction mixture contained 400 μM ATP, 1 μM STK3 peptide, 5 nM of Cot in reaction buffer (10 mM MOPS, pH 7.0, 0.02% NaN3, 0.5 mg/mL BSA, 10 mM MgOAc, 1 mM DTT, 0.025% NP-40, 1.5% glycerol) and 0.1% DMSO.
`CC(C)(C)N1CCC(n2cc([C@@H](Nc3cc(Cl)c4ncc(C#N)c(Nc5cccnc5)c4c3)c3ccc(Cl)cc3)nn2)CC1` [Example 772, (S)-6-(((1-(1-(tert-butyl)piperidin-4-yl)-1H-1,2,3-triazol-4-yl)(4-chlorophenyl)methyl)amino)-8-chloro-4-(pyridin-3-ylamino)quinoline-3-carbonitrile]: the IC50 was 0.324 µM.

In the case of `COc1cccc(C(Nc2cc(Cl)c3ncc(C#N)c(Nc4ccc(F)c(Cl)c4)c3c2)c2cn(C3CCNCC3)nn2)c1` (stereo not drawn) [Example 903, 8-chloro-4-((3-chloro-4-fluorophenyl)amino)-6-(((3-methoxyphenyl)(1-(piperidin-4-yl)-1H-1,2,3-triazol-4-yl)methyl)amino)quinoline-3-carbonitrile], the IC50 came out at 0.007 µM. Under `N#Cc1cnc2c(Cl)cc(NC(c3ccc(F)cc3)c3cccnc3)cc2c1Nc1ccc(F)c(Cl)c1` (stereo not drawn) [Example 862, 8-chloro-4-((3-chloro-4-fluorophenyl)amino)-6-(((4-fluorophenyl)(pyridin-3-yl)methyl)amino)quinoline-3-carbonitrile] stands 3.96 µM.

Consider `N#Cc1cnc2c(Cl)cc(NC(c3ccc(F)cc3)c3ncccn3)cc2c1Nc1ccc(F)c(Cl)c1` (stereo not drawn) [Example 800, 8-chloro-4-((3-chloro-4-fluorophenyl)amino)-6-(((4-fluorophenyl)(pyrimidin-2-yl)methyl)amino)quinoline-3-carbonitrile], for which the half-inhibitory concentration (IC50) was above 10 µM. On to `N#Cc1cnc2c(Cl)cc(N[C@@H](c3ccc(F)cc3)c3cn(C4CCN(C5COC5)CC4)nn3)cc2c1Nc1ccc(F)c(Cl)c1` [Compound 31], for which the 50% inhibitory concentration (IC50) was determined as 0.019 µM.

`N#Cc1cnc2c(Cl)cc(NC(c3ccc(Cl)c(Cl)c3)c3cn(C4CCNCC4)nn3)cc2c1Nc1ccc(F)c(Cl)c1` (stereo not drawn) [Example 910, 8-chloro-4-((3-chloro-4-fluorophenyl)amino)-6-(((3,4-dichlorophenyl)(1-(piperidin-4-yl)-1H-1,2,3-triazol-4-yl)methyl)amino)quinoline-3-carbonitrile]: the IC50 was 0.052 µM. As to `CN(C)CCNCc1cccc([C@H](Nc2cc(Cl)c3ncc(C#N)c(Nc4ccc(F)c(Cl)c4)c3c2)c2cn(C3CCN(C(C)(C)C)CC3)nn2)c1` [Example 726, (S)-6-(((1-(1-(tert-butyl)piperidin-4-yl)-1H-1,2,3-triazol-4-yl)(3-(((2-(dimethylamino)ethyl)amino)methyl)phenyl)methyl)amino)-8-chloro-4-((3-chloro-4-fluorophenyl)amino)quinoline-3-carbonitrile], the IC50 came out at 0.039 µM.

For `N#Cc1cnc2c(Cl)cc(NC(c3ccc(F)cc3)c3cn(C4CCOCC4)nn3)cc2c1Nc1ccc(F)c(Cl)c1` (stereo not drawn) [Example 843, 8-chloro-4-((3-chloro-4-fluorophenyl)amino)-6-(((4-fluorophenyl)(1-(tetrahydro-2H-pyran-4-yl)-1H-1,2,3-triazol-4-yl)methyl)amino)quinoline-3-carbonitrile], the IC50 came out at 0.058 µM. Take `N#Cc1cnc2c(Cl)cc(NC(c3ccc(OC(F)(F)F)cc3)c3cn(C4CCN(C(=O)OCc5ccccc5)CC4)nn3)cc2c1Nc1ccc(F)c(Cl)c1` (stereo not drawn) [Example 896, benzyl 4-(4-(((8-chloro-4-((3-chloro-4-fluorophenyl)amino)-3-cyanoquinolin-6-yl)amino)(4-(trifluoromethoxy)phenyl)methyl)-1H-1,2,3-triazol-1-yl)piperidine-1-carboxylate]: the IC50 was above 10 µM. In the case of `N#Cc1cnc2c(Cl)cc(NC(c3ccc(Cl)cc3)c3cn([C@@H]4CCN(C(=O)OCc5ccccc5)C4)nn3)cc2c1Nc1ccc(F)c(Cl)c1` (stereo partly drawn) [Example 866, benzyl (3R)-3-(4-(((8-chloro-4-((3-chloro-4-fluorophenyl)amino)-3-cyanoquinolin-6-yl)amino)(4-chlorophenyl)methyl)-1H-1,2,3-triazol-1-yl)pyrrolidine-1-carboxylate], the IC50 was 2.1 µM.

Turning to `CCN1CCC(n2cc(C(Nc3cc(Br)c4ncc(C#N)c(Nc5ccc(F)c(Cl)c5)c4c3)c3ccc(F)cc3)nn2)CC1` (stereo not drawn) [Example 833, 8-bromo-4-((3-chloro-4-fluorophenyl)amino)-6-(((1-(1-ethylpiperidin-4-yl)-1H-1,2,3-triazol-4-yl)(4-fluorophenyl)methyl)amino) quinoline-3-carbonitrile], the IC50 is 0.007 µM. For the molecule `CC(C)(C)OC(=O)N1CCC(n2cc([C@@H](Nc3cc(Cl)c4ncc(C#N)c(Nc5ccc(F)c(Cl)c5)c4c3)c3ccc(F)cc3)nn2)CC1` [Example 830, tert-butyl (S)-4-(4-(((8-chloro-4-((3-chloro-4-fluorophenyl)amino)-3-cyanoquinolin-6-yl)amino)(4-fluorophenyl)methyl)-1H-1,2,3-triazol-1-yl)piperidine-1-carboxylate], the half-inhibitory concentration (IC50) turned out to be 0.363 µM.

Consider `Cn1cc(C(Nc2cc(Cl)c3ncc(C#N)c(Nc4ccc(F)c(Cl)c4)c3c2)c2cccc(C3OCCO3)c2)nn1` (stereo not drawn) [Example 730, 6-(((3-(1,3-dioxolan-2-yl)phenyl)(1-methyl-1H-1,2,3-triazol-4-yl)methyl)amino)-8-chloro-4-((3-chloro-4-fluorophenyl)amino)quinoline-3-carbonitrile], for which the 50% inhibitory concentration (IC50) came out at 0.012 µM. In the case of `N#Cc1cnc2ccc(NC(c3ccc(F)cc3)c3ccncn3)cc2c1Nc1ccc(F)c(Cl)c1` (stereo not drawn) [Example 799, 4-((3-chloro-4-fluorophenyl)amino)-6-(((4-fluorophenyl)(pyrimidin-4-yl)methyl)amino)quinoline-3-carbonitrile], the half-maximal inhibitory concentration (IC50) came to 1.48 µM. As for `CC(C)(CC(=O)O)n1cc([C@@H](Nc2cc(Cl)c3ncc(C#N)c(Nc4ccc(F)c(Cl)c4)c3c2)c2ccc(F)cc2)nn1` [Example 812, (S)-3-(4-(((8-chloro-4-((3-chloro-4-fluorophenyl)amino)-3-cyanoquinolin-6-yl)amino)(4-fluorophenyl)methyl)-1H-1,2,3-triazol-1-yl)-3-methylbutanoic acid], the IC50 is 0.794 µM. Under `N#Cc1cnc2c(Cl)cc(NC(c3ccc(F)c(F)c3)c3cn(C4CCNCC4)nn3)cc2c1Nc1ccc(F)c(Cl)c1` (stereo not drawn) [Example 900, 8-chloro-4-((3-chloro-4-fluorophenyl)amino)-6-(((3,4-difluorophenyl)(1-(piperidin-4-yl)-1H-1,2,3-triazol-4-yl)methyl)amino)quinoline-3-carbonitrile] stands 0.014 µM; under `CN(C)C(=O)N1CCC[C@@H]1Cn1cc(C(Nc2cc(Cl)c3ncc(C#N)c(Nc4ccc(F)c(Cl)c4)c3c2)c2ccc(F)cc2)nn1` (stereo partly drawn) [Example 818, (2R)-2-((4-(((8-chloro-4-((3-chloro-4-fluorophenyl)amino)-3-cyanoquinolin-6-yl)amino)(4-fluorophenyl)methyl)-1H-1,2,3-triazol-1-yl)methyl)-N,N-dimethylpyrrolidine-1-carboxamide], 0.447 µM; under `CCN1CCC(n2cc(C(Nc3cc(Cl)c4ncc(C#N)c(Nc5ccc(F)c(Cl)c5)c4c3)c3ccc(F)c(F)c3)nn2)CC1` (stereo not drawn) [Example 901, 8-chloro-4-((3-chloro-4-fluorophenyl)amino)-6-(((3,4-difluorophenyl)(1-(1-ethylpiperidin-4-yl)-1H-1,2,3-triazol-4-yl)methyl)amino)quinoline-3-carbonitrile], 0.011 µM. On to `CC(C)(C)N1CCC(n2cc([C@@H](Nc3cc(Cl)c4ncc(C#N)c(Nc5cccc(-n6nccn6)c5)c4c3)c3ccccc3)nn2)CC1` [Example 785, (S)-4-((3-(2H-1,2,3-triazol-2-yl)phenyl)amino)-6-(((1-(1-(tert-butyl)piperidin-4-yl)-1H-1,2,3-triazol-4-yl)(phenyl)methyl)amino)-8-chloroquinoline-3-carbonitrile], for which the IC50 turned out to be 0.782 µM. In the case of `CC(C)(C)N1CCC(n2cc([C@@H](Nc3ccc4nc(N)c(C#N)c(Nc5ccc(F)c(Cl)c5)c4c3)c3ccc(Cl)cc3)nn2)CC1` [Example 760, (S)-2-amino-6-(((1-(1-(tert-butyl)piperidin-4-yl)-1H-1,2,3-triazol-4-yl)(4-chlorophenyl)methyl)amino)-4-((3-chloro-4-fluorophenyl)amino)quinoline-3-carbonitrile], the IC50 came out at 2.34 µM. `CCN1CCC(n2cc(C(Nc3cc(Cl)c4ncc(C#N)c(Nc5ccc(F)c(Cl)c5)c4c3)c3ccc(Cl)c(Cl)c3)nn2)CC1` (stereo not drawn) [Example 911, 8-chloro-4-((3-chloro-4-fluorophenyl)amino)-6-(((3,4-dichlorophenyl)(1-(1-ethylpiperidin-4-yl)-1H-1,2,3-triazol-4-yl)methyl)amino)quinoline-3-carbonitrile]: the IC50 was determined as 0.036 µM. For `CC(C)(C)N1CCC(n2cc([C@@H](Nc3cc(Cl)c4ncc(C#N)c(Nc5ccc(F)c(S(C)(=O)=O)c5)c4c3)c3ccc(Cl)cc3)nn2)CC1` [Example 754, (S)-6-(((1-(1-(tert-butyl)piperidin-4-yl)-1H-1,2,3-triazol-4-yl)(4-chlorophenyl)methyl)amino)-8-chloro-4-((4-fluoro-3-(methylsulfonyl)phenyl)amino) quinoline-3-carbonitrile], the IC50 turned out to be 2.53 µM. Regarding `N#Cc1cnc2c(Cl)cc(NC(c3ccc(F)cc3)c3cnccn3)cc2c1Nc1ccc(F)c(Cl)c1` (stereo not drawn) [Example 801, 8-chloro-4-((3-chloro-4-fluorophenyl)amino)-6-(((4-fluorophenyl)(pyrazin-2-yl)methyl)amino)quinoline-3-carbonitrile], the IC50 was 1.07 µM. For the molecule `N#Cc1cnc2c(Cl)cc(NC(c3ccc(F)cc3)c3cn(C4CCNCC4)nn3)cc2c1Nc1ccc(F)c(Cl)c1` (stereo not drawn) [Example 886, 8-chloro-4-((3-chloro-4-fluorophenyl)amino)-6-(((4-fluorophenyl)(1-(piperidin-4-yl)-1H-1,2,3-triazol-4-yl)methyl)amino)quinoline-3-carbonitrile], the 50% inhibitory concentration (IC50) worked out at 0.011 µM.
